Assay results as given in the OPERA property sets (Mansouri et al. 2018).

SMILES | logP
O=C1CC(c2ccc(O)c(O)c2)Oc2cccc(O)c21 (configuration not stated) | 2.81
C[C@@H]1O[C@@H](O[C@H]2[C@H](Oc3cc(O)c4c(c3)O[C@H](c3ccc(O)cc3)CC4=O)O[C@H](CO)[C@@H](O)[C@@H]2O)[C@H](O)[C@H](O)[C@H]1O | -0.44
O=C1CC(c2cccc(O)c2)Oc2cc(O)cc(O)c21 (configuration not stated) | 2.61
COc1ccc([C@@H]2CC(=O)c3c(O)cc(O)cc3O2)cc1O | 2.6
O=c1cc(-c2ccc(O)c(O)c2)oc2cccc(O)c12 | 3.31
O=c1cc(-c2ccccc2)oc2cccc(O)c12 | 4.3
O=c1cc(-c2ccc(O)cc2)oc2cc(O)cc(O)c12 | 3.02
O=C1C[C@@H](c2ccc(O)cc2)Oc2cc(O)cc(O)c21 | 2.52
COc1ccc(-c2cc(=O)c3c(O)cc(O)cc3o2)cc1O | 3.1
O=c1cc(-c2ccc(O)c(O)c2)oc2cc(O)cc(O)c12 | 2.53
Oc1cc(O)c2c(c1)O[C@H](c1ccc(O)c(O)c1)[C@@H](O)C2 | 0.51
O=C1CC(c2ccc(O)c(O)c2)Oc2cc(O)cc(O)c21 (configuration not stated) | 2.02
O=c1cc(-c2ccccc2)oc2cc(O)cc(O)c12 | 3.52
O=C1C[C@@H](c2ccc(O)c(O)c2)Oc2cc(O)ccc21 | 1.94
COc1ccc(-c2cc(=O)c3c(O)cc(O[C@@H]4O[C@H](CO[C@@H]5O[C@@H](C)[C@H](O)[C@@H](O)[C@H]5O)[C@@H](O)[C@H](O)[C@H]4O)cc3o2)cc1O | 0.14
O=C1c2ccc(O)cc2OC(c2ccc(O)c(O)c2)C1O (configuration not stated) | 0.87
O=C1c2c(O)cc(O)cc2O[C@H](c2ccc(O)c(O)c2)[C@H]1O | 0.95
